We go through 14 compounds from patent publication US9029080B2, “Screening assay for insecticides” (priority 2008, dated 2015).

One assay concerns the target T1, ShaI_delN (Drosophila melanogaster, UniProt P17971).
T1 construct: expressed in transfected cells; host or cells: CHO
Kind of assay: ShaI_delN clonal lines, FLIPR blue membrane potential dye, KCl depolarization. Type of assay: cell-based. The following applies: both the ShaI_delN clonal lines and the control pcDNA3 cell line, FLIPR. Here is the method:
ShaI_DelN C10 and C15 were tested for function on the FLIPR using the Molecular Devices blue membrane potential dye. The cells were seeded at 60K cells/well in 96-well Costar plates in complete media and assayed for function at 24 hrs. Depolarization with 15-60 mM KCl caused a 2-2.8 fold higher activity in the clonal line than the pcDNA control cell line (FIG. 5). Clone 10 had slightly higher activity than clone 15.
FIG. 5: ShaI_DelN clones tested on FLIPR with KCl depolarization. We also tested some known K-channel blockers on channel activity on the FLIPR (FIG. 6). […] The ShaI_delN clonal cell lines lost their GFP expression and assay window with cell passage. At passage 12, only 10-15% of the cell population was GFP positive.
The effects of barium (Ba2+) on ShaI_delN function were tested. Barium is known to inhibit some open rectifier and inward rectifier K-channel activities. Cells were dye loaded in the presence of BaCl2 for 1 hr at RT and assayed on the FLIPR using KCl depolarization for channel activation.

The next assay deals with SK2 channel (Homo sapiens, UniProt Q9H2S1). The following applies: patch clamp; cited from earlier work. On the technique in general: Patch clamp records ionic current or voltage across a cell membrane.
Assay [1] deals with T2, octopamine receptor (OctR, CG6919 dmOa2) (Drosophila melanogaster, UniProt Q9VCZ3).
T2 construct: expressed in transfected cells; host or cells: CHO stably expressing G-alpha-16
Kind of assay: OctR clone 55 FLIPR Fluo-4 calcium assay. In kind it is cell-based. The following applies: clone 55, same as published cAMP data. Here is the method:
FIG. 62. Cells were plated at 10K/well in 384 well plates and allowed to incubate overnight at […]. The cells were assayed 18-24 hours after seeding. Media was removed and cells were dye loaded for 60 minutes with 2 μM Fluo-4. After 1 hour, dye was removed and 20 μl of buffer added to the plate and placed into FLIPR. The 1st addition was antagonist dose response curves and the 2nd addition was agonist dose response curves. Antagonists were challenged with 100 nM Octopamine. In addition, these compounds were tested in the parental cell line CHO-Galpha16.
Cells were plated at 10,000 cells/well in 50 μl into 384-well black TC plates and allowed to incubate overnight at 37° C./5% CO2. The cells were assayed 18-24 hours after seeding. Culture medium was removed by flicking and cells were dye loaded for 60 minutes with 20 μl of 2 μM Fluo-4 in assay buffer plus probenecid at 25° C. After one hour dye was removed by flicking and 20 μL of assay buffer was added, wait 5 min prior to placing into the FLIPR and run using a two-addition protocol. The first addition (20 ul, 2×) was 0.5% DMSO final in assay buffer. The second addition (20 ul, 3×) was either assay buffer or 100 nM octopamine final.

In assay [2] the target is T3, Shaker channel plus H-kvβ A subunit (Drosophila melanogaster, UniProt P08510, INS512V).
T3 construct: expressed in transfected cells; host or cells: CHO-K1
Type of assay: cell-based. Here is the method:
In order to detect the membrane depolarization elicited by KCl injection, the Membrane Potential sensitive dye was used both for FLIPR384 and […] experiments. Cells were analyzed in 384 clear-bottom black MPTs (MATRIX cat. #4324) by seeding 5000, 7500, 10000 cells/well 24 hrs before experiment. Plates were incubated with 40 μl/w of 0.625× membrane potential dye for 45-60 minutes at 37° C. or room temperature and measured at FLIPR instrument by injecting 10 μl/w of 5× antagonist (in the presence of 0.5% DMSO, as indicated) followed by 3-5 minutes fluorescence reading; then a second injection of 25 μl/w of 3× KCl in Standard Tyrode solution) was performed and fluorescence measured for further 3-4 minutes. In experiments with a single injection (agonist), plates were incubated with 20 μl/w of 1× dye and injected with 20 μl/w of 2× KCl in Standard Tyrode solution.
Kinetic data obtained from different well replicates were analyzed with FLIPR, Excel and Spotfire software, by calculating the Integral or Maximum-Minimum RFU values after the injection; the obtained means and standard deviations were utilized to create sigmoidal dose-response fits by GraphPad PRISM® or Spotfire software and to calculate EC50-IC50 values and Z′ factors.
FIG. 42. […]

Another assay deals with T4, ShaI/KChIP (Drosophila melanogaster, UniProt P17971).
T4 construct: expressed in transfected cells; subclone 18-13-20
T4 sequence (P17971 with tags, fused parts or gaps isoform P17971-1): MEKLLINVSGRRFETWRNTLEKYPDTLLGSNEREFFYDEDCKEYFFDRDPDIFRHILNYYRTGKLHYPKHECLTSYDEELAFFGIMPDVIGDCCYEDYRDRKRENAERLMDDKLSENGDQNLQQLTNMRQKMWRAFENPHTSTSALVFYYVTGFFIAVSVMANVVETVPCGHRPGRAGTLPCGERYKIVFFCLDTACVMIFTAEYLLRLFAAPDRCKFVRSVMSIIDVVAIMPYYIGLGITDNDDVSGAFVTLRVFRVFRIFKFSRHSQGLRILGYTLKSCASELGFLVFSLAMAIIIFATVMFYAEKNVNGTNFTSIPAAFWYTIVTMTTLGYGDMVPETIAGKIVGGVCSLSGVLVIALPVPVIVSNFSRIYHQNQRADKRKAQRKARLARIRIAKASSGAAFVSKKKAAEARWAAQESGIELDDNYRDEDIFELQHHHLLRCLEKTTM
The experiment in a line: ShaI/KChIP FLIPR membrane potential assay, KCl depolarization. In kind it is cell-based. Here is the method:
This assay uses two fluid additions to permit the detection of activators and antagonists in a single experiment (FIG. 17). In screening, test compounds are added in the first addition and allowed to incubate for three minutes. An activating dose of KCl is then introduced in the second addition and the fluorescence read for an additional three minutes. Controls are run for both additions.
Cells were dispensed in a 50 μl volume containing 7,500 cells into 384-well TC clear/black assay plates (Greiner 781091) using a Multidrop 384 dispenser, incubated at ambient temperature for one hour (to reduce edge effects), and incubated overnight at 37° C./5% CO2. The cells were assayed 18-24 hours after seeding, at which point they were just approaching confluency in the wells. Culture medium was removed by flicking and tapping it out of the plate, and cells were loaded with 20 ul/well of 1× blue membrane potential dye in assay buffer for 30 minutes at 25° C. After 30 minutes the assay plate was placed into the FLIPR and run using a two-addition protocol. The first addition (5×, 5 ul) contained 2.5% DMSO in assay buffer. The pipetting height was set at 15 and the speed 20. The plate was read for three minutes after this addition. The second addition (2×, 25 ul) was either assay buffer or 120 mM isometrically-substituted KCl (i.e., KCl substituted for NaCl on a 1:1 molar basis). The height was 20 and the speed 25. Aspirate speeds were set at the lowest values and no hold or expel volumes applied. The plate was read for an additional three minutes after the second addition. The exported statistics were typically configured as stat1=average of 190-200 (the interval just before the first addition) and stat2=maximum of 260-maximum allowed. Subtract bias was set at 1 and negative control correction was OFF. Z′ statistics (an index of “screenability”, Z′>0.5=single-pass screen) were calculated using the following formula: Z′=1−((3σmax+3σmin)/(Iμmax−μminI)).
FIG. 32: BIOMOL compounds—primary screening data. ScreenWorks screenshots showing primary FLIPR data for BIOMOL compound screening. ShaI/KChIP 20 cells were plated at 7500 cells/well in 384-well assay plates and screened the following day. Culture medium was removed by flicking the plates and the cells were loaded with 20 ul 1× membrane potential dye per well for 0.5 hours at 25° C. A two-addition protocol was used. The first addition was 5 ul 5× control or compound in 2.5% DMSO in assay buffer (0.5% [final]) read for 180 sec, and the second addition was 25 ul 2× control or 120 mM isometrically-substituted KCl in assay buffer (0-60 mM [final]) read for an additional 180 sec. Statistics were exported using the average of reads 180-200 and the maximum of reads 260-maximum allowed. Subtract bias was set at 1 and negative control correction was OFF. Control columns ½ and 23/24 are described starting on pg. 53 of this document. Inset: Screenshot of group averages for the control and compound wells highlighted in the primary data screen.
The 3222 unique members of the BioFocus SoftFocus Ion Channel Libraries #1-4 (#SF101-04) were screened in 384-well four-point mode against ShaI/KChIP at 10 uM in a combined activator and antagonist screen. The same FLIPR protocol was used as for the BIOMOL screening and was carried out over four non-consecutive days. The following compound preparation protocol was used to prepare screening plates: Briefly, ShaI-KChIP cells were seeded in 384-well plates at 7500 cells/well in 50 ul and incubated overnight at 37° C./5% CO2. The next day, culture medium was removed, 20 ul of 1×FMP dye was added, and the cell plate was incubated at 27° C. for 30 minutes. After incubation, the cell plate was placed into the Tetra and a two-addition protocol was used. The 1st addition was 5 μl of 5× compound (50 μM) with a three minute read. […] The 2nd addition was 25 ul of 2× activation buffer (120 mM isometric KCl substitution for NaCl) and read for an additional two minutes. […]

Read-outs that look alike come from different tables or passages of the source.

Usually EC50 stands for the midpoint of the concentration-response curve.

On to `COC(=O)C1=C(C)NC(C)=C([N+](=O)[O-])C1c1ccccc1C(F)(F)F` (stereo not shown) [Bay K8644], for which, on ShaI_delN, the “inhibition of KCl depolarization” value is on record as “dose dependent inhibition”.
For the compound `NC(=O)N1c2ccccc2C=Cc2ccccc21` [carbamazepine], the “block of SK2 channel currents” value on SK2 channel is “micro-molar affinity”.
Consider `O=C(O)c1cccnc1Nc1cccc(C(F)(F)F)c1` [niflumic acid], for which the “inhibition of KCl depolarization” value on ShaI_delN is on record as “dose dependent inhibition”.
On to `C=C[C@H]1CN2CC[C@@H]1CC2[C@@H](O)c1ccnc2ccc(OC)cc12` (stereo in doubt) [quinidine, (2-ethenyl-4-azabicyclo[2.2.2]oct-5-yl)-(6-methoxyquinolin-4-yl)-methanol], for which the “inhibition of KCl depolarization” value on ShaI_delN is on record as “dose dependent inhibition”.
As for `CN(C)CCC=C1c2ccccc2CCc2ccccc21` [amitriptyline], the “block of SK2 channel currents” value at SK2 channel is “micro-molar affinity”.
For the compound `c1ccc(CC2=NCCN2)cc1` [tolazoline], the “rank order of potency (agonists)” value in assay [1] is “naphazoline>octopamine>amitraz>clonidine>tolazoline”.
Turning to `CC[N+](CC)(CC)CC` [TEA, Tetraethylammonium], the “effect on KCl stimulation” value in assay [2] is listed as “blocking effect is visible”.
Turning to `Cc1ccc(/N=C/N(C)/C=N/c2ccc(C)cc2C)c(C)c1` [amitraz], the “rank order of potency (agonists)” value in assay [1] is “naphazoline>octopamine>amitraz>clonidine>tolazoline”.
As for `c1ccc2c(CC3=NCCN3)cccc2c1` [naphazoline], the “rank order of potency (agonists)” value in assay [1] was “naphazoline>octopamine>amitraz>clonidine>tolazoline”.
As for `[Cl-].[K+]` [KCl, reference compound], the EC50 at ShaI/KChIP (ShaI/KChIP 18-13 cells, isometrically-substituted KCl, fixed top response, read-out: EC50) was 30 mM; at ShaI/KChIP (ShaI/KChIP 20 cells, three days, standard deviation 5 mM, read-out: EC50 mean), 36 mM. The “Activator concentration (~EC80)” value in assay [2] (in Activation buffer, high-throughput screening parameter) is given as around 50 mM.
Consider `Clc1cccc(Cl)c1N=C1NCCN1` [clonidine], for which the “rank order of potency (agonists)” value in assay [1] was “naphazoline>octopamine>amitraz>clonidine>tolazoline”.
On to `Nc1c2c(nc3ccccc13)CCCC2` [tacrine], for which the “block of SK2 channel currents” value on SK2 channel is recorded as “micro-molar affinity”.
As for `COC(=O)C1=C(C)NC(C)=C(C(=O)OCCN(C)Cc2ccccc2)C1c1cccc([N+](=O)[O-])c1` (stereo not shown) [nicardipine], on ShaI_delN, the “inhibition of KCl depolarization” value was “dose dependent inhibition”.
On the same count and under the same terms, the result for `O=C(NCC1CCCCN1)c1cc(OCC(F)(F)F)ccc1OCC(F)(F)F` (stereo not shown) [Flecainide] reads “did not show any inhibition”.
